Experiment [1] relates to Amaranthus retoflexus (AMARE). The experiment in a line: Pre-emergence glasshouse herbicide test. Type of experiment: in vivo. Particulars: 125 g/h, evaluated after 13 days. The procedure, abridged:
(§1)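 Scores are percentage plant damage 13 days after treatment, binned 5=80-100%, 4=60-79%, 3=40-59%, 2=20-39%, 1=0-19%. Compounds were sprayed at 125 g/h unless otherwise indicated, either one day after sowing or on 8-day-old plants, under 24/16 °C, 14 h light and 65% humidity.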

Experiment [2] has as its system Setaria faberi (SETFA). The experiment in a line: Pre-emergence glasshouse herbicide test. Type of experiment: in vivo. To be noted: 125 g/h, evaluated after 13 days. An outline of the steps: as §1
Experiment [3] concerns Ipomoea hederacea (IPOHE). The experiment in a line: Pre-emergence glasshouse herbicide test. To be noted: 125 g/h, evaluated after 13 days. Type of experiment: in vivo. An outline of the steps: as §1
The subject of experiment [4] is Abutilon theophrasti (ABUTH). The experiment in a line: Pre-emergence glasshouse herbicide test. Particulars: 125 g/h, evaluated after 13 days. The class given is in vivo. An outline of the steps:
as §1

Experiment [5] relates to Echinochloa crus-galli (ECHCG). The experiment in a line: Pre-emergence glasshouse herbicide test. The class given is in vivo. To be noted: 125 g/h, evaluated after 13 days. An outline of the steps: as §1
The next experiment concerns IPOHE. Put plainly: Comparative experiment, POST application. Type of experiment: in vivo, Ipomoea hederacea. The method, then:
(§2) A comparative experiment is conducted to show the advantage provided by the compounds of the present invention. Thus the biological performance of representative compounds […] Compound 4-460 of the type referred to in WO2012/028579. Results are given as (%) phytotoxicity observed.

For the next experiment, the system named is AMARE. The experiment in a line: Comparative experiment, POST application. The class given is in vivo, Amaranthus retoflexus. The method, then: as §2
In the next experiment the test system is SETFA. The experiment in a line: Comparative experiment, POST application. Type of experiment: in vivo, Setaria faberi. The method, then: as §2
The next experiment concerns ZEAMX/maize. Put plainly: Comparative experiment, POST application. To be noted: crop. The class given is in vivo. The method, then:
as §2

A further experiment has as its system DIGSA. The experiment in a line: Comparative experiment, POST application. Type of experiment: in vivo. The method, then:
as §2

In the next experiment the test system is ECHCG. The experiment in a line: Comparative experiment, POST application. Type of experiment: in vivo, Echinochloa crus-galli. The method, then: as §2
The test system of a further experiment is ABUTH. Put plainly: Comparative experiment, POST application. Type of experiment: in vivo, Abutilon theophrasti. The method, then: as §2
Experiment [6] concerns Amaranthus retoflexus (AMARE). Put plainly: Post-emergence glasshouse herbicide test. Particulars: 125 g/h, evaluated after 13 days. The class given is in vivo. The procedure, abridged:
as §1

In experiment [7] the test system is Setaria faberi (SETFA). Put plainly: Post-emergence glasshouse herbicide test. Type of experiment: in vivo. To be noted: 125 g/h, evaluated after 13 days. An outline of the steps: as §1
Experiment [8] concerns Ipomoea hederacea (IPOHE). The experiment in a line: Post-emergence glasshouse herbicide test. Type of experiment: in vivo. Particulars: 125 g/h, evaluated after 13 days. The procedure, abridged: as §1
Experiment [9] concerns Abutilon theophrasti (ABUTH). Put plainly: Post-emergence glasshouse herbicide test. Type of experiment: in vivo. To be noted: 125 g/h, evaluated after 13 days. The procedure, abridged: as §1
In experiment [10] the test system is Echinochloa crus-galli (ECHCG). Put plainly: Post-emergence glasshouse herbicide test. The class given is in vivo. Particulars: 125 g/h, evaluated after 13 days. An outline of the steps: as §1

From patent US20220402882A1, “HERBICIDAL COMPOUNDS” (SYNGENTA CROP PROTECTION AG, priority 2019, published 2022) come the findings set out here.

Regarding `Cn1nnnc1NC(=O)c1ccc(OC(F)F)c(S(C)(=O)=O)c1Cl` [Compound 1.003, 2-chloro-4-(difluoromethoxy)-3-methylsulfonyl-N-(1-methyltetrazol-5-yl)benzamide], the “percentage damage caused to the plant, AMARE” value in experiment [1] and in experiment [6] was 5 (5=80-100%) in each case. For the same molecule, the “percentage damage caused to the plant, SETFA” value in the experiment with Setaria faberi (SETFA) [2] and in the experiment with Setaria faberi (SETFA) [7] was 5 (5=80-100%) in each case. The “percentage damage caused to the plant, IPOHE” value is 1 (1=0-19%) in experiment [3] and 5 (5=80-100%) in experiment [8]. Besides, the “percentage damage caused to the plant, ABUTH” value in [4] and in experiment [9] was 5 (5=80-100%) in each case. Further, the “percentage damage caused to the plant, ECHCG” value in experiment [5] and in [10] was 5 (5=80-100%) throughout. In addition, the “(%) phytotoxicity observed, IPOHE” value in the experiment on IPOHE (rate 15 g/ha) and with IPOHE (rate 30 g/ha) was 100% each time. The “(%) phytotoxicity observed, AMARE” value in the experiment on AMARE (rate 15 g/ha) and with AMARE (rate 30 g/ha) was 100% each time. Moreover, the “(%) phytotoxicity observed, SETFA” value in the experiment with SETFA (rate 15 g/ha) is listed as 80%; in the experiment with SETFA (rate 30 g/ha), 90%. The “(%) phytotoxicity observed, ZEAMX” value in the experiment on ZEAMX/maize (rate 15 g/ha) and in the experiment on ZEAMX/maize (rate 30 g/ha) was 0% throughout. Also, the “(%) phytotoxicity observed, DIGSA” value with DIGSA (rate 15 g/ha) and in the experiment on DIGSA (rate 30 g/ha) was 80% throughout. Moreover, the “(%) phytotoxicity observed, ECHCG” value in the experiment on ECHCG (rate 15 g/ha) and in the experiment on ECHCG (rate 30 g/ha) was 90% each time. Further, the “(%) phytotoxicity observed, ABUTH” value turned out to be 90% in the experiment with ABUTH (rate 15 g/ha) and 100% with ABUTH (rate 30 g/ha).
On to `Cn1nnnc1NC(=O)c1ccc(C(F)(F)F)c(S(C)(=O)=O)c1Cl` [Compound 4-640, reference compound], for which the “(%) phytotoxicity observed, IPOHE” value with IPOHE (rate 15 g/ha) and in the experiment on IPOHE (rate 30 g/ha) was 90% throughout. In addition, the “(%) phytotoxicity observed, AMARE” value in the experiment with AMARE (rate 15 g/ha) and in the experiment with AMARE (rate 30 g/ha) was 90% in each case. In addition, the “(%) phytotoxicity observed, SETFA” value in the experiment with SETFA (rate 15 g/ha) and in the experiment with SETFA (rate 30 g/ha) was 90% in each case. Further, the “(%) phytotoxicity observed, ZEAMX” value amounted to 40% with ZEAMX/maize (rate 15 g/ha) and 70% in the experiment on ZEAMX/maize (rate 30 g/ha). In addition, the “(%) phytotoxicity observed, DIGSA” value in the experiment on DIGSA (rate 15 g/ha) and in the experiment on DIGSA (rate 30 g/ha) was 80% in each case. The “(%) phytotoxicity observed, ECHCG” value was found to be 80% in the experiment on ECHCG (rate 15 g/ha) and 90% with ECHCG (rate 30 g/ha). The “(%) phytotoxicity observed, ABUTH” value in the experiment with ABUTH (rate 15 g/ha) and in the experiment with ABUTH (rate 30 g/ha) was 90% throughout.
As for `CCn1nnnc1NC(=O)c1ccc(OC(F)F)c(S(=O)(=O)CC)c1C` [Compound 1.048], the “percentage damage caused to the plant, AMARE” value in [1] and in experiment [6] was 5 (5=80-100%) throughout. The “percentage damage caused to the plant, SETFA” value in the experiment on Setaria faberi (SETFA) [2] and with Setaria faberi (SETFA) [7] was 5 (5=80-100%) each time. Also, the “percentage damage caused to the plant, IPOHE” value in experiment [3] and in [8] was 5 (5=80-100%) throughout. The “percentage damage caused to the plant, ABUTH” value in experiment [4] and in experiment [9] was 5 (5=80-100%) in each case. Besides, the “percentage damage caused to the plant, ECHCG” value in [5] and in [10] was 5 (5=80-100%) throughout.
